Experimental data taken from patent publication US6465221B1, “Method of producing a taxane-type diterpene” (Mitsui Chemicals, Inc., priority 1994, dated 2002).

Experiments:
[1] = system: cultured cells of Taxus media; experiment: Taxus media cell culture with coronatine; format: cell-based; conditions: concentration of coronatines 1 μM
Protocol: (§1) One gram (fresh weight) of the cultured cells thus obtained was inoculated to an Erlenmeyer flask containing 20 ml of liquid Woody Plant Medium to which the above-mentioned component was added to give the same concentration, and shake culture was carried out at 25° C. for 14 days. On the 14th day after starting the culture, 50 μl of coronatine [formula (IV)] was added as coronatines to the culture medium to give the final concentration of 0.001-1000 μM and the culture was further carried out for another 7 days.
(§2) After completing the culture, cultured cells of Taxus baccata LINN were harvested by filtration and lyophilized, then the dry weight was measured to obtain the yeild of the cultured cells per liter of the liquid medium.
Example 7 was repeated except that cultured cells of Taxus media, which was obtained in the process analogous to that of said example were used and coronatine was added as coronatines to give the final concentration of 1 μM.

[2] = system: cultured cells of Taxus baccata LINN; experiment: Taxus baccata cell culture with coronatines; format: cell-based
Protocol: A part of stem of Taxus baccata LINN which had been previously sterilized with 2% antiformin solution or 70% ethanol solution or the like, was placed on solid Woody Plant Medium (containing gelan gum of 0.25% by weight) to which naphthalenacetic acid had been added to give the concentration of 10^−5 M, and static culture was carried out at 25 ° C. in a dark place to provide callus of Taxus baccata LINN. One gram (fresh weight) of the callus was inoculated to an Erlenmeyer flask containing 20 ml of liquid Woody Plant Medium to which the above-mentioned component was added to give the same concentration and shake culture was carried out with a rotary shaker (amplification of 25 mm, 120 rpm) and the callus was subcultured in every 21 days to accelerate the growth rate thereof.
as §1, §2

[3] = system: cultured cells of Taxus media; conditions: α-linolenic acid, concentration not given, 14 days
Protocol: Two grams (fresh weight) of the cultured cells thus obtained by liquid culture was inoculated to 20 ml of liquid Woody Plant Medium (contained in an Erlenmeyer flask of 100 ml) to which α-linolenic acid of 0.01-1000 μM (dissolved in ethanol) was added, and shake culture was carried out at 25° C. in a dark place with a rotary shaker (amplification of 25 mm, 100 rpm).
After completing the culture for 14 days, cultured cells were harvested by filtration and lyophilized, then the dry weight was measured to obtain the yield thereof. Taxane-type diterpenes were extracted from the dried callus and the culture medium with methanol or the like, and they were determined by comparing with standard taxol using high performance liquid chromatography to measure the yield of taxol.

[4] = system: cultured cells of Taxus baccata LINN; experiment: Taxus baccata cell culture with fatty acids or natural oil; format: cell-based; conditions: 14 days
Protocol: One gram (fresh weight) of the callus was inoculated to an Erlenmeyer flask containing 20 ml of liquid Woody Plant Medium and shake culture was carried out with a rotary shaker (amplification of 25 mm, 100 rpm) and the callus was subcultured in every 21 days to accelerate the growth rate thereof.

[5] = concentration of coronatines 0.001 μM
[6] = concentration of coronatines 0.01 μM
[7] = concentration of coronatines 0.1 μM
[8] = concentration of coronatines 1 μM
[9] = concentration of coronatines 10 μM
[10] = concentration of coronatines 100 μM
[11] = concentration of coronatines 1000 μM
[12] = concentration of α-linolenic acid 0.01 μM
[13] = concentration of α-linolenic acid 0.1 μM
[14] = concentration of α-linolenic acid 1 μM
[15] = concentration of α-linolenic acid 10 μM
[16] = concentration of α-linolenic acid 100 μM
[17] = concentration of α-linolenic acid 500 μM
[18] = concentration of α-linolenic acid 1000 μM

CCC1C=C(C(=O)NC2(C(=O)O)CC2CC)C2CCC(=O)C2C1 (stereo not shown) [Example 7, coronatine]
yield of baccatin III [1]: 26.5 mg/L
yield of cephalomannine [1]: 15.1 mg/L
yield of cultured cells [1]: 18.6 g/L
yield of taxol [1]: 65.2 mg/L
yield of baccatin III [2, 5]: 5.0 mg/L
yield of cephalomannine [2, 5]: 3.8 mg/L
yield of cultured cells [2, 5]: 20.1 g/L
yield of taxol [2, 5]: 9.6 mg/L
yield of baccatin III [2, 6]: 8.9 mg/L
yield of cephalomannine [2, 6]: 10.2 mg/L
yield of cultured cells [2, 6]: 20.2 g/L
yield of taxol [2, 6]: 15.2 mg/L
yield of baccatin III [2, 7]: 18.7 mg/L
yield of cephalomannine [2, 7]: 12.3 mg/L
yield of cultured cells [2, 7]: 18.6 g/L
yield of taxol [2, 7]: 30.1 mg/L
yield of baccatin III [2, 8]: 28.4 mg/L
yield of cephalomannine [2, 8]: 11.4 mg/L
yield of cultured cells [2, 8]: 18.4 g/L
yield of taxol [2, 8]: 60.0 mg/L
yield of baccatin III [2, 9]: 38.5 mg/L
yield of cephalomannine [2, 9]: 8.8 mg/L
yield of cultured cells [2, 9]: 17.8 g/L
yield of taxol [2, 9]: 49.4 mg/L
yield of baccatin III [2, 10]: 44.1 mg/L
yield of cephalomannine [2, 10]: 7.9 mg/L
yield of cultured cells [2, 10]: 17.5 g/L
yield of taxol [2, 10]: 58.0 mg/L
yield of baccatin III [2, 11]: 13.2 mg/L
yield of cephalomannine [2, 11]: 6.5 mg/L
yield of cultured cells [2, 11]: 15.0 g/L
yield of taxol [2, 11]: 23.1 mg/L

CC/C=C\C/C=C\C/C=C\CCCCCCCC(=O)O [Example 26, α-linolenic acid]
yield of cells [3]: 20 g/L
yield of taxane-type diterpenes, baccatin III [3]: 10 mg/L
yield of taxane-type diterpenes, cephalomannine [3]: 2 mg/L
yield of taxane-type diterpenes, taxol [3]: 22 mg/L
yield of cells [4, 12]: 20 g/L
yield of taxane-type diterpenes, baccatin III [4, 12]: 2 mg/L
yield of taxane-type diterpenes, cephalomannine [4, 12]: 2 mg/L
yield of taxane-type diterpenes, taxol [4, 12]: 5 mg/L
yield of cells [4, 13]: 20 g/L
yield of taxane-type diterpenes, baccatin III [4, 13]: 2 mg/L
yield of taxane-type diterpenes, cephalomannine [4, 13]: 2 mg/L
yield of taxane-type diterpenes, taxol [4, 13]: 6 mg/L
yield of cells [4, 14]: 20 g/L
yield of taxane-type diterpenes, baccatin III [4, 14]: 2 mg/L
yield of taxane-type diterpenes, cephalomannine [4, 14]: 2 mg/L
yield of taxane-type diterpenes, taxol [4, 14]: 6 mg/L
yield of cells [4, 15]: 20 g/L
yield of taxane-type diterpenes, baccatin III [4, 15]: 3 mg/L
yield of taxane-type diterpenes, cephalomannine [4, 15]: 4 mg/L
yield of taxane-type diterpenes, taxol [4, 15]: 8 mg/L
yield of cells [4, 16]: 19 g/L
yield of taxane-type diterpenes, baccatin III [4, 16]: 6 mg/L
yield of taxane-type diterpenes, cephalomannine [4, 16]: 4 mg/L
yield of taxane-type diterpenes, taxol [4, 16]: 19 mg/L
yield of cells [4, 17]: 14 g/L
yield of taxane-type diterpenes, baccatin III [4, 17]: 4 mg/L
yield of taxane-type diterpenes, cephalomannine [4, 17]: 3 mg/L
yield of taxane-type diterpenes, taxol [4, 17]: 12 mg/L
yield of cells [4, 18]: 12 g/L
yield of taxane-type diterpenes, baccatin III [4, 18]: 2 mg/L
yield of taxane-type diterpenes, cephalomannine [4, 18]: 2 mg/L
yield of taxane-type diterpenes, taxol [4, 18]: 7 mg/L
